Literature values as cited in US10870689B2, “ApoM-Fc fusion proteins, complexes thereof with sphingosine 1-phosphate (S1P), and methods for treating vascular and non-vascular diseases” (Children's Medical Center Corporation, priority 2016, dated 2020).

Biological target: T1, S1P1 (Homo sapiens, UniProt P21453)
T1 construct: expressed in transfected cells
Details: Hofmann et al. 2009; Tsukada et al. 2007

T1 sequence (P21453 whole entry, species assumed): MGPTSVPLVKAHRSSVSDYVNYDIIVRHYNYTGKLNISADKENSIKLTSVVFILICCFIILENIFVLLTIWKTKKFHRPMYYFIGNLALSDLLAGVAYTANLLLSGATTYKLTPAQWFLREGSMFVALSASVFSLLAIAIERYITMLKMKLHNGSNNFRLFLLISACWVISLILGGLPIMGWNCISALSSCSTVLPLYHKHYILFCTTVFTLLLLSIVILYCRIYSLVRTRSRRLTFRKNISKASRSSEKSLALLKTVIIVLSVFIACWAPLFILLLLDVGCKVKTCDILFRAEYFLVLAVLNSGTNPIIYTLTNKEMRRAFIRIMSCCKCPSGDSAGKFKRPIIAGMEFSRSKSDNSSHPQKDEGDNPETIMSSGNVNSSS

FC(F)(F)c1cccc(-c2noc(-c3cc(-c4ccccc4)c(C(F)(F)F)s3)n2)c1 [SEW2871]
effect on cardiac rhythm: induced abnormal cardiac rhythm
